In ChEMBL document CHEMBL1136644, “Alkylation of manganese(II) tetraphenylporphyrin by antimalarial fluorinated artemisinin derivatives” (Bioorg Med Chem Lett, 2003):

Legend:
[1] = Half-life in plasma; type: ADME, cell-free
Plasmodium falciparum = assay: In vitro inhibitory activity against the chloroquine-resistant Plasmodium falciparum W2 Indochina; type: functional, organism-based
[2] = Partition coefficient (logP); type: physicochemical; settings: octanol/water

C[C@H]1[C@@H](C(=O)OCCC(=O)[O-])O[C@@H]2O[C@]3(C)CC[C@H]4[C@H](C)CC[C@@H]1C24OO3.[Na+]
half-life [1]: < 2 h

C[C@@H]1CC[C@H]2[C@@H](C)[C@](O[Si](C)(C)C)(C(F)(F)F)O[C@@H]3O[C@]4(C)CC[C@@H]1C32OO4
IC50 (Plasmodium falciparum): 72 nM

CO[C@H]1O[C@@H]2OC3(C)CC[C@H]4[C@H](C)CC[C@@H]([C@H]1C)[C@@]24OO3 (single isomer, unassigned) [ARTEMETHER]
half-life [1]: < 2 h
logP [2]: 3.36

C[C@@H]1CC[C@H]2[C@@H](C)C(=O)O[C@@H]3OC4(C)CC[C@@H]1[C@]32OO4 (single isomer, unassigned) [ARTEMISININ]
half-life [1]: < 2 h
